Laboratory results reported in publication PMC7933930, “Development of a small molecule that corrects misfolding and increases secretion of Z α1‐antitrypsin” (EMBO Molecular Medicine, 2021).
Values after ≈ are worked out from the molar mass of the structure shown.

Columns and labels:
NULL CHO-K1 = assay: Off‐target panel: NULL CHO-K1 Agonist (DRX); type: cell-based; settings: Cricetulus griseus, read-out: Mean (PXC50)
Procedure: (§1) GSK716 selectivity and PK properties were profiled in order to investigate the suitability of GSK716 for progression into in vivo studies and the potential for taking it forward as a clinical candidate for testing in humans. Since GSK716 results in loss of inhibitory activity of α1‐antitrypsin, the effect of the compound was assessed on other closely related serpins. […] Furthermore, there were no off‐target effects in a panel of assays considered predictive of known safety liabilities that precluded further development of GSK716 (Table EV1).

[1] = tested on: Z α1‐antitrypsin secretion in CHO‐TET‐ON‐Z‐A1AT cells; assay: Secretion of Z α1‐antitrypsin from CHO‐TET‐ON‐Z‐A1AT cells (TR‐FRET); type: cell-based; settings: n = 74, read-out: mean pEC50, secretion of Z α1‐antitrypsin (converted)
α1‐antitrypsin = target: T1, α1‐antitrypsin (Homo sapiens, UniProt P01009, E366K); assay: Intrahepatic α1‐antitrypsin by ELISA in Z α1‐antitrypsin transgenic mice; type: in vivo, mouse
T1 construct: random insertion of the human Z α1‐antitrypsin gene; from tissue; host or cells: hemizygous Z α1-antitrypsin transgenic mice (liver, plasma)
T1 sequence (P01009 25-418 E366K): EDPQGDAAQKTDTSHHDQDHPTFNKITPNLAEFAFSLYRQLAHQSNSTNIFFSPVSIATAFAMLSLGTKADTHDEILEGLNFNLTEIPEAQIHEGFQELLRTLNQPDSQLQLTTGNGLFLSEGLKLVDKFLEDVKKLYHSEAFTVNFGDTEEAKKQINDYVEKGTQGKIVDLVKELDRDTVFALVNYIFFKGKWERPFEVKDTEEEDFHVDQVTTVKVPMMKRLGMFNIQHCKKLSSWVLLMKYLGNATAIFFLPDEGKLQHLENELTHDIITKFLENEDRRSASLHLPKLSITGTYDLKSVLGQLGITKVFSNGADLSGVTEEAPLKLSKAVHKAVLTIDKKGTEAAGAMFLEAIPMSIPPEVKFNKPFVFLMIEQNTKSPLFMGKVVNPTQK
Procedure: Since GSK716 blocks polymer formation in cells, we explored the effect of dosing GSK716 on liver polymer levels. […] GSK716 was dosed at 100 mg/kg three times a day for 20 days. […] Liver polymer levels were investigated by staining with 2C1 anti‐polymer monoclonal antibody and were scored blind by a pathologist or by quantification using an algorithm to measure all areas of positive staining (Fig EV1). There was no difference observed in total liver polymer load when assessed by manual or quantitative scoring (Fig 6B and C). There was no significant fibrosis in any of the liver sections. Intrahepatic α1‐antitrypsin was also assessed by ELISA. The vast majority (95–100%) of α1‐antitrypsin within the liver was polymer with the monomer typically being below the level of detection. Treatment with GSK716 increased the monomer measured in liver homogenate by approx. fourfold in keeping with the changes seen in blood.

Solubility in FaSSIF = type: physicochemical; settings: amorphous, read-out: solubility of amorphous drug substance in FaSSIF
Serotonin 5HT1B = Serotonin 5HT1B (Homo sapiens, UniProt P28222); assay: Off‐target panel: Serotonin 5HT1B; type: cell-based
Serotonin 5HT1B, sequence (P28222 whole entry): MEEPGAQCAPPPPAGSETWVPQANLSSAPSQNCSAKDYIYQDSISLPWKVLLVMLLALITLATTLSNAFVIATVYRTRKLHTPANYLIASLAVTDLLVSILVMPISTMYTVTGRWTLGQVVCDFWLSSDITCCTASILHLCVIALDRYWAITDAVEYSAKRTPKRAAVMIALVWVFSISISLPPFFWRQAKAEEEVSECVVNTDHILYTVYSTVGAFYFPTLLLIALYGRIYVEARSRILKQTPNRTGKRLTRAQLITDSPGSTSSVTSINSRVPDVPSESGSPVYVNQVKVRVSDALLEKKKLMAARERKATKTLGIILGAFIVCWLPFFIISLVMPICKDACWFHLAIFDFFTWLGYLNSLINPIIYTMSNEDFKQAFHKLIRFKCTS
Procedure: as §1

Serotonin 5HT2C = target: T2, Serotonin 5HT2C (Homo sapiens, UniProt P28335); assay: Off‐target panel: Serotonin 5HT2C; type: cell-based
T2 sequence (P28335 33-458): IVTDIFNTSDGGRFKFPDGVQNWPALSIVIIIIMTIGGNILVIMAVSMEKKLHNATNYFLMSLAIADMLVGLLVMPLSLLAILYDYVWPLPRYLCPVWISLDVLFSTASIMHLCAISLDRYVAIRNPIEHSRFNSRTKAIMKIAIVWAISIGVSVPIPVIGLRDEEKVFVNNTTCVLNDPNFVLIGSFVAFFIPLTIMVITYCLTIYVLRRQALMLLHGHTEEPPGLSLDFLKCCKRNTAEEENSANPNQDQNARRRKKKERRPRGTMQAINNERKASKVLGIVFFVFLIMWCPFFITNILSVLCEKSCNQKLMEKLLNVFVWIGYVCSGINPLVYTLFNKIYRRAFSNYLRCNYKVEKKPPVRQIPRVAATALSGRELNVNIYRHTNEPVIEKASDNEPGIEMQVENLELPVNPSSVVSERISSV
Procedure: as §1

α1‐antichymotrypsin = α1‐antichymotrypsin (Homo sapiens, UniProt P01011); assay: Inhibitory activity of α1‐antichymotrypsin against chymotrypsin; type: biochemical
α1‐antichymotrypsin, sequence (P01011 24-423, species assumed): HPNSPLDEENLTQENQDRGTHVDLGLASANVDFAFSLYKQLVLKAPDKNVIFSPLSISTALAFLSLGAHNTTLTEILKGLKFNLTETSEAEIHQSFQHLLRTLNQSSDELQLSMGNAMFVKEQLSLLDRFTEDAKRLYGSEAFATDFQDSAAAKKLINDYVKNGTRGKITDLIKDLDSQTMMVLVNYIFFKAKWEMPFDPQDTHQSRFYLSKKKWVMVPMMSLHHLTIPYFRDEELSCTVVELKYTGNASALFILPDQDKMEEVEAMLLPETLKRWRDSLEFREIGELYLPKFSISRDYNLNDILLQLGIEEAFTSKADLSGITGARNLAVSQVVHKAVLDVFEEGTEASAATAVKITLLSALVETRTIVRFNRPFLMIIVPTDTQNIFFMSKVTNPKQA
Procedure: Figure 5 The effect of GSK716 on serpin inhibitory activity • α1‐Antitrypsin was incubated at varying molar ratios with the model protease bovine α‐chymotrypsin, and the residual protease activity determined. The intercept of the regression with the abscissa reflects the number of molecules of α1‐antitrypsin required to inhibit one molecule of chymotrypsin in the presence (+c) and absence (−c) of 50µM GSK716. Error bars reflect ± SEM of three independent experiments. • M α1‐antitrypsin was incubated with different molar ratios of chymotrypsin and resolved by SDS–PAGE. The position of covalent α1‐antitrypsin‐chymotrypsin complex (cpx), native (nat) and cleaved (clv) is shown. • The inhibitory activity of α1‐antichymotrypsin against chymotrypsin (ach + chym), neuroserpin against trypsin (neus + tryp), and antithrombin against thrombin (atiii + thrombin) was determined in the presence and absence of GSK716. Error bars reflect ± SD of two independent experiments.
GSK716 selectivity and PK properties were profiled in order to investigate the suitability of GSK716 for progression into in vivo studies and the potential for taking it forward as a clinical candidate for testing in humans. Since GSK716 results in loss of inhibitory activity of α1‐antitrypsin, the effect of the compound was assessed on other closely related serpins. […]

[2] = target: polymers of Z α1‐antitrypsin (Homo sapiens, UniProt P01009, E366K); assay: Binding to Z α1‐antitrypsin polymers (fluorescence polarisation)
polymers of Z α1‐antitrypsin, sequence (P01009 25-418 E366K): as the sequence (P01009 25-418 E366K) above
Procedure: Figure 1 Characteristics of the lead series of chiral hydroxy‐carboxamides identified from the ELT screen • The structure of GSK425, identified from the ELT screen, and the derived compound GSK716 obtained through a structure‐based design pipeline. • The degree of polymerisation of Z α1‐antitrypsin after 72 h at 37°C, as determined by an end‐point immunoassay using the 2C1 monoclonal antibody, in varying concentrations of compound (shown in panel A). […] Data presented as mean ± SD. • The compound bound to monomeric but not polymeric Z α1‐antitrypsin (Z α1‐AT) as reported by fluorescence polarisation of an Alexa‐488‐labelled variant of GSK716. • Representative curves reporting the interaction of different concentrations of GSK716 with Z α1‐antitrypsin based on changes in intrinsic tryptophan fluorescence.
Kinetic parameters of GSK716 binding to M, Z, S (Glu264Val) and Baghdad (Ala336Pro) (Haq et al, 2016) α1‐antitrypsin were measured by detecting intrinsic tryptophan fluorescence of the protein (excitation at 280 nm and detection of emission at 320 nm) on a stopped flow apparatus (Applied Photophysics) (Kim & Yu, 1996; Dafforn et al, 1999). […]

α1 nicotinic AChR = α1 nicotinic AChR (Homo sapiens, UniProt P02708); assay: Off‐target panel: α1 nicotinic AChR; type: cell-based
α1 nicotinic AChR, sequence (P02708 21-457): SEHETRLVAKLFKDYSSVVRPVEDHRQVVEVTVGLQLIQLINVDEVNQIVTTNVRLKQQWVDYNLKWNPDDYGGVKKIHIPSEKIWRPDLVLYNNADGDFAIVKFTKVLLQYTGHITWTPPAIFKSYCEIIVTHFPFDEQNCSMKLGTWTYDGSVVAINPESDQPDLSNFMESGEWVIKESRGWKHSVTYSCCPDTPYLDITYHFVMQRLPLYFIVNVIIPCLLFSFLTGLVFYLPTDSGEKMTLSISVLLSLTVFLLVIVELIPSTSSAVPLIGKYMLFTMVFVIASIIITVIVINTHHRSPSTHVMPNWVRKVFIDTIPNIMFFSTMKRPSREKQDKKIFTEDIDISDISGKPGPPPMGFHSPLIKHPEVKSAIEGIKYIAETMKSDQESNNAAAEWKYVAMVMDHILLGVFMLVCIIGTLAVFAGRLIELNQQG
α1 nicotinic AChR, sequence (P11230 24-501 partner): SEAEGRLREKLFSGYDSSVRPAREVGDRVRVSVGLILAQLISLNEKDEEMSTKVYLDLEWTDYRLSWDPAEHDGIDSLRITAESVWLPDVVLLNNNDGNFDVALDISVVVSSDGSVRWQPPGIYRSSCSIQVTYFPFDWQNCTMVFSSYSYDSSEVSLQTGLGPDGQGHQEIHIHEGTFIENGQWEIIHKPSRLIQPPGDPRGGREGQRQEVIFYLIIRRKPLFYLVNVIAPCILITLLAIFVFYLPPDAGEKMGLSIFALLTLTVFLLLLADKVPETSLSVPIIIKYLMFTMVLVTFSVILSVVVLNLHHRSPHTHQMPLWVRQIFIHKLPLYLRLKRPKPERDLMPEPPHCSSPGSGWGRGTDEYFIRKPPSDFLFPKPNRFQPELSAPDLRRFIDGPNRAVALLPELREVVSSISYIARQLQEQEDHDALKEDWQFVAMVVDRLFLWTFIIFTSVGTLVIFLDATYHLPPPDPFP
α1 nicotinic AChR, sequence (Q07001 22-517 partner): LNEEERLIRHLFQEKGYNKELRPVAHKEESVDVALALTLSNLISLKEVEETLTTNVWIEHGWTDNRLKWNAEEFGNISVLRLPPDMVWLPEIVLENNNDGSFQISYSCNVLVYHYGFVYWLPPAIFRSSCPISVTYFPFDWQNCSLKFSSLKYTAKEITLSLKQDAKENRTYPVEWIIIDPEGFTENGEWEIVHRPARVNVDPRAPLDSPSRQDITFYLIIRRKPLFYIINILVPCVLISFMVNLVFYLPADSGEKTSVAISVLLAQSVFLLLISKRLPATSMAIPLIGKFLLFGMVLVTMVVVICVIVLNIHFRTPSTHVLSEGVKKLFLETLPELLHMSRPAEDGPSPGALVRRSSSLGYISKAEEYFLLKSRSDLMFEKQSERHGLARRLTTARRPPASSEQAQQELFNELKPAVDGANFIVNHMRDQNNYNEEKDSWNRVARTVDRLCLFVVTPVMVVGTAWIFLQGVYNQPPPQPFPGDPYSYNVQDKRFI
Procedure: as §1

CCC[C@@H](NC(=O)c1cccc2c1CC(=O)N2)[C@@H](O)c1cccc(F)c1C [GSK716]
EC50 (NULL CHO-K1): > 100 µM
EC50 [1]: 0.631 µM
increase of monomer measured in liver homogenate (α1‐antitrypsin): approx. fourfold
solubility (Solubility in FaSSIF): 969 µg/mL (≈ 2620 µM)
EC50 (Serotonin 5HT1B): > 100 µM
IC50 (Serotonin 5HT1B): > 100 µM
EC50 (Serotonin 5HT2C): > 25.1 µM
IC50 (Serotonin 5HT2C): > 25.1 µM
inhibitory activity of α1‐antichymotrypsin towards its cognate protease (α1‐antichymotrypsin): did not affect
binding to polymers of Z α1‐antitrypsin [2]: lack of binding
EC50 (α1 nicotinic AChR): > 50.1 µM
IC50 (α1 nicotinic AChR): 31.6 µM
